US10646489B2, “Compositions and methods for increasing energy metabolism” (NuSirt Sciences, Inc., priority 2012, dated 2020)

How the values were obtained:
AMPK [1] = assay: AMPK activation in adipocytes; assay type: cell-based; details: rolipram 0.1 nM combinations
Source text: (§1) The output of the pathways can be measured using one or more methods, disclosed herein and/or known in the art. For example, fatty acid oxidation can be determined by measuring oxygen consumption, or 3H-labeled palmitate oxidation. Mitochondrial biogenesis can be measured using a mitochondrial probe by using fluorescence. AMPK activity can be determined by measuring AMPK phosphorylation via an ELISA assay or by Western blot. Sirt1 activity can be determined by measuring deacetylation of a substrate, which can be detected using a fluorophore.
(§2) Two PDE 4 inhibitors were studied, rolipram and YM796, in combination with leucine and HMB for their effects on energy metabolism. Dose-response indicate concentrations of 0.1 nM or below of rolipram and YM796 exert no effect; accordingly, this was the concentration used in these experiments. […] However, no synergy was found for glucose utilization or AMPK activation.

C2C12 myotubes [2] = assay: Glucose utilization (extracellular acidification response to glucose injection) in C2C12 myotubes / muscle cells; assay type: cell-based
Method: Glucose utilization was measured as extracellular acidification response to glucose injection. *p=0.04. […] Treatment with 0.5 mM leucine corresponds to a circulating level of the same molarity achieved by administering about 1,125 mg of dietary leucine to a human subject. Treatment with 0.25 mM leucine corresponds to a circulating level of the same molarity achieved by administering about 300 mg of dietary leucine to a human subject.

C2C12 myotubes [3] = assay: Fatty acid oxidation (O2 consumption response to palmitate injection) in C2C12 myotubes / muscle cells; assay type: cell-based; details: for increase in myotube fat oxidation, with HMB: PDE 5 inhibitor 1 nM with HMB (5 μM); for increase in myotube fat oxidation, with leucine: PDE 5 inhibitor 1 nM with leucine (0.5 mM); for increase in myotube fat oxidation, with resveratrol: PDE 5 inhibitor 1 nM with resveratrol (200 nM)
Method: Fatty acid oxidation was measured as O2 consumption response to palmitate injection and is expressed as % change from pre-injection baseline. […] Data expressed as % change from control value. *p=0.013; **p=0.015. The output of the pathways can be measured using one or more methods, disclosed herein and/or known in the art. […] Mitochondrial biogenesis can be measured using a mitochondrial probe by using fluorescence. AMPK activity can be determined by measuring AMPK phosphorylation via an ELISA assay or by Western blot. Sirt1 activity can be determined by measuring deacetylation of a substrate, which can be detected using a fluorophore. […] Treatment with 0.5 mM leucine corresponds to a circulating level of the same molarity achieved by administering about 1,125 mg of dietary leucine to a human subject. Treatment with 0.25 mM leucine corresponds to a circulating level of the same molarity achieved by administering about 300 mg of dietary leucine to a human subject.

3T3-L1 adipocytes [4] = assay: Glucose utilization (extracellular acidification response to glucose injection) in 3T3-L1 adipocytes / adipocytes; assay type: cell-based
Method: Glucose utilization was measured as extracellular acidification response to glucose injection. *p=0.05. […] Treatment with 0.5 mM leucine corresponds to a circulating level of the same molarity achieved by administering about 1,125 mg of dietary leucine to a human subject. Treatment with 0.25 mM leucine corresponds to a circulating level of the same molarity achieved by administering about 300 mg of dietary leucine to a human subject.

AMPK [5] = assay: AMPK activity / phosphorylation in muscle cells; assay type: cell-based
Source text: as §1, §2

[6] = Dose-response of the PDE inhibitor alone (concentration without effect); assay type: cell-based
Method: (§3) Vinopocetine, which is a PDE 1 inhibitor, was tested in combination with leucine, HMB, and resveratrol for its effects on energy metabolism.
(§4) Two PDE 3 inhibitors were studied, amrinone and cilostamide, in combination with leucine and HMB for their effects on energy metabolism.
Two PDE 4 inhibitors were studied, rolipram and YM796, in combination with leucine and HMB for their effects on energy metabolism.
(§5) Icariin is a naturally occurring flavonol with significant PDE 5 inhibitory activity.

[7] = Synergy on energy metabolism (fat oxidation, glucose utilization), cell type not stated; assay type: cell-based
Method: as §3, §4, §5

[8] = Substitution of leucine by other branched chain amino acids in the synergy with a PDE5 inhibitor
Source text: Branched chain amino acids that can be combined with a PDE-5 inhibitor have aliphatic side chains with a branch carbon atom that is bound to two or more other atoms. The other atoms may be carbon atoms. Examples of branched chain amino acids include leucine, isoleucine, and valine. Branched chain amino acids may also include other compounds, such as 4-hydroxyisoleucine. In some embodiments, the compositions are substantially free of one or more, or all of non-branched chain amino acids. In some embodiments, the compositions are substantially free of one or more, or all of non-branched chain amino acids in free amino acid form. For example, the compositions can be substantially free of […], and/or tyrosine. The compositions can be substantially free of […], and/or tyrosine in free amino acid form. In some embodiments, the branched chain amino acid is leucine. In some embodiments, the compositions may be substantially free of isoleucine and/or valine, which may be in free form. The synergistic effects between leucine and a PDE5 inhibitor, as described herein, are not observed when leucine is substituted with isoleucine and valine. Not wishing to be bound by any particular theory, isoleucine, valine, and leucine compete with each other for transport and/or absorption, and inclusion of isoleucine and valine in a composition would reduce the efficacy of any leucine in the composition. […]

3T3-L1 adipocytes [9] = assay: Fatty acid oxidation in 3T3-L1 adipocytes / adipocytes; assay type: cell-based; details: p<0.05
Source text: (§6) Data expressed as % change from control value.*p<0.05. The output of the pathways can be measured using one or more methods, disclosed herein and/or known in the art. […] Mitochondrial biogenesis can be measured using a mitochondrial probe by using fluorescence. AMPK activity can be determined by measuring AMPK phosphorylation via an ELISA assay or by Western blot. Sirt1 activity can be determined by measuring deacetylation of a substrate, which can be detected using a fluorophore. […] Treatment with 0.5 mM leucine corresponds to a circulating level of the same molarity achieved by administering about 1,125 mg of dietary leucine to a human subject. Treatment with 0.25 mM leucine corresponds to a circulating level of the same molarity achieved by administering about 300 mg of dietary leucine to a human subject.

C2C12 myotubes [10] = assay: Mitochondrial biogenesis measured as mitochondrial mass in C2C12 myotubes; assay type: cell-based
Method: as §6, with “The” for “Data expressed as % change from control value.*p<0.05. The”

diet-induced obese mouse = assay: Post-prandial glucose, insulin and HOMAIR in the diet-induced obese mouse; assay type: in vivo; details: 14-day treatment
Method: The interactive effects of icariin, a flavanol with specific PDE5 inhibitory properties, on glycemia and insulin sensitivity were assessed in the diet-induced obese mouse, which can be used as a murine model of type 2 diabetes. Male C57/BL6 mice were placed on standard low-fat chow (control; 10% energy from fat) or high fat (60% energy from fat, Research Diets # D12492, Research Diets, Inc, New Brunswick, N.J.) at six weeks of age to induce insulin resistance. […], with 10 animals per group: Low fat diet (LFD) control; High fat diet (HFD) control; HFD+leucine (24 g/kg diet, a two-fold increase over control levels)1 HFD+leucine (24 g/kg diet)+icariin (25 mg/kg diet). […] Mice were fasted overnight (˜16 hours) prior to measurement of fasting blood glucose, insulin and glucose tolerance. Glucose tolerance was determined following measurement of fasting glucose via intraperitoneal administration of glucose (1.2 g/kg body weight) followed by blood glucose measurement at 15, 30, 60, 90 and 120 minutes. Post-prandial glucose was measured within one hour of cessation of eating. Insulin tolerance was measured via an insulin tolerance test (ITT). Food was removed 4-6 hours prior to ITT, and baseline blood glucose measured. The mice were then injected intraperitoneally with insulin (1.2 U/kg body weight) and blood glucose was measured 15, 30, 60, 90 and 120 minutes following insulin injection. The homeostasis model assessment of insulin resistance (HOMAIR) was used as a screening index of changes in insulin sensitivity. HOMAIR is calculated via standard formula from fasting plasma insulin and glucose as follows: HOMAIR=[Insulin (uU/mL)×glucose (mM)]/22.5. The plasma glucose and insulin concentrations were measured using the Glucose Assay Kit from Biovision (Milpitas, Calif.) and the Insulin kit from Millipore (Billerica, Mass.), respectively. CRP levels in plasma were determined by ELISA (CRP: Life Diagnostics, West Chester, Pa.).

[11] = 25 mg/kg diet; ~4 mg/kg body weight; previous published studies; cited from earlier work
C2C12 myotubes [12] = assay: Nitric oxide production in C2C12 myotubes; assay type: cell-based; details: HMB or resveratrol, each, p<0.0001
Method: Treatment with 0.5 mM leucine corresponds to a circulating level of the same molarity achieved by administering about 1,125 mg of dietary leucine to a human subject. Treatment with 0.25 mM leucine corresponds to a circulating level of the same molarity achieved by administering about 300 mg of dietary leucine to a human subject.

[13] = vinpocetine 0.1 nM with either leucine (0.5 mM) or HMB (5 μM)

COc1ccc(C2CNC(=O)C2)cc1OC1CCCC1 (stereo not drawn) [rolipram]
synergy for AMPK activation (AMPK [1]): no synergy
synergistic effect with leucine, HMB or resveratrol with respect to glucose utilization (C2C12 myotubes [2]; muscle cells, rolipram 0.1 nM): no synergistic effect
synergistic effect with leucine, HMB or resveratrol with respect to fat oxidation (C2C12 myotubes [3]; muscle cells, rolipram 0.1 nM): no synergistic effect
synergy for glucose utilization (3T3-L1 adipocytes [4]; adipocytes, rolipram 0.1 nM combinations): no synergy
synergistic effect with leucine, HMB or resveratrol with respect to AMPK activity (AMPK [5]; muscle cells, rolipram 0.1 nM): no synergistic effect
AMPK phosphorylation (AMPK [5]; rolipram alone, not augmented by leucine or HMB): activated

CCOC(=O)C1=C[C@]2(CC)CCCN3CCc4c(n1c1ccccc41)[C@@H]32 [Vinpocetine]
concentration that exerts no effect (dose-response) [6]: ≤ 0.1 nM
increase in glucose utilization (3T3-L1 adipocytes [4]; adipocytes, vinpocetine 0.1 nM with low-dose resveratrol (200 nM), p=0.03): 70%
synergy with respect to fat oxidation [7, 13]: no synergy
synergy with respect to glucose utilization [7, 13]: no synergy

Nc1cc(-c2ccncc2)c[nH]c1=O [amrinone]
synergy with either leucine or HMB (energy metabolism) ([7]; amrinone 10 nM): no significant synergy

CC(C)[C@H](N)C(=O)O [valine]
synergistic effects with a PDE5 inhibitor when substituted for leucine [8]: not observed

CC[C@H](C)[C@H](N)C(=O)O [isoleucine]
synergistic effects with a PDE5 inhibitor when substituted for leucine [8]: not observed

CC(C)(O)CC(=O)O [HMB, beta-hydroxymethylbutyrate]
fatty acid oxidation, agent alone (3T3-L1 adipocytes [9]; 3T3-L1 adipocytes, leucine 0.5 mM or HMB 5 μM alone): 29%

Oc1ccc(/C=C/c2cc(O)cc(O)c2)cc1 [resveratrol, 3,5,4′-Trihydroxy-trans-stilbene]
effect of resveratrol on the sildenafil interaction (mitochondrial biomass) (C2C12 myotubes [10]; FIG. 12): no significant effect
interaction of resveratrol with icariin (mitochondrial biogenesis) (C2C12 myotubes [10]; FIG. 13): did not exhibit a significant interaction

insulin
decrease in HOMAIR vs. untreated HFD mice (diet-induced obese mouse): ~40%
decrease in circulating (post-prandial) insulin vs. untreated HFD mice (diet-induced obese mouse): ~30%

COc1ccc(-c2oc3c(CC=C(C)C)c(O[C@@H]4O[C@H](CO)[C@@H](O)[C@H](O)[C@H]4O)cc(O)c3c(=O)c2O[C@@H]2O[C@@H](C)[C@H](O)[C@@H](O)[C@H]2O)cc1 [icariin]
effect of the selected level [11]: no effect
synergy with both leucine and HMB to up regulate mitochondrial biogenesis (C2C12 myotubes [10]; icariin 1 nM, FIG. 13, p<0.001): significant synergy
increase in myotube fat oxidation, with HMB (C2C12 myotubes [3]; C2C12 myotubes): 75%
increase in myotube fat oxidation, with leucine (C2C12 myotubes [3]; C2C12 myotubes): 77%
increase in myotube fat oxidation, with resveratrol (C2C12 myotubes [3]; C2C12 myotubes): 157%
concentration that exerts no effect (dose-response) [6]: below 1 nM
effect on nitric oxide production (C2C12 myotubes [12]; icariin with leucine): modest, significant effects
synergy with respect to glucose utilization ([7]; icariin 1 nM): did not exhibit significant synergy

CN(C(=O)CCCOc1ccc2[nH]c(=O)ccc2c1)C1CCCCC1 [cilostamide]
increase in fat oxidation (3T3-L1 adipocytes [9]; adipocytes, cilostamide 10 nM combined with either leucine (0.5 mM) or HMB (5 μM)): 58%
increase in fat oxidation (C2C12 myotubes [3]; muscle cells, cilostamide 10 nM combined with either leucine (0.5 mM) or HMB (5 μM), p<0.05): 92%

CCCc1nn(C)c2c(=O)[nH]c(-c3cc(S(=O)(=O)N4CCN(C)CC4)ccc3OCC)nc12 [sildenafil]
augmentation of myotube glucose utilization, with resveratrol (C2C12 myotubes [2]; C2C12 myotubes, sildenafil 1 nM with resveratrol 200 nM, p=0.04): 53%
increase in myotube fat oxidation, with HMB (C2C12 myotubes [3]; C2C12 myotubes): 203%
increase in myotube fat oxidation, with leucine (C2C12 myotubes [3]; C2C12 myotubes): 232%
increase in myotube fat oxidation, with resveratrol (C2C12 myotubes [3]; C2C12 myotubes): no interaction
fatty acid oxidation, agent alone (C2C12 myotubes [3]; C2C12 myotubes, sildenafil 1 nM (change from baseline) or leucine 0.5 mM alone): about 50%
concentration that exerts no effect (dose-response) [6]: below 1 nM
synergy of HMB or resveratrol with sildenafil on glucose utilization (3T3-L1 adipocytes [4]; 3T3-L1 adipocytes): neither HMB nor resveratrol exerted any significant synergy
increase in nitric oxide production (C2C12 myotubes [12]; sildenafil (1 nM) with leucine): 15-30%
